In assay [1] the target is T1, HBV genotype D RNAseH (HRHPL) (Hepatitis B virus genotype D subtype ayw, UniProt P03156, INS679M).
T1 construct: HRHPL contains HBV genotype D (Genbank V01460) polymerase residues 684-845; made in house; host or cells: E. coli BL21 codon+
Description: Oligonucleotide-directed RNAseH cleavage assay, HBV genotype D. The conditions noted are these: for Activity vs. HBV Biochemical vs. gtD: class by concentration giving inhibition (10, 20, 60 μM). The class given is biochemical. As for the experimental part: (§1) For the oligonucleotide-directed RNAseH cleavage assay (Gong et al., 2001), 6 μl protein extract (typical protein concentration 2.8 mg/ml) was mixed with 0.5 μg internally ^32P-labeled DRF+ RNA (nucleotides 2401-2605 of the duck HBV genome plus 60 nucleotides of flanking sequences from pBluescript) and 3 μg oligonucleotide D2507- or its corresponding negative control D2526+ on ice in 20 μl under the conditions in Table 1. Some reactions in FIG. 5 employed oligonucleotide D2543M-Sal or its D2453+ negative control as indicated. The reactions were incubated at 42° C. for 90 min. and terminated by addition of Laemmli protein loading buffer and boiling. The samples were resolved by 12% SDS-PAGE, the gels were stained with Coomassie blue to monitor protein loading, and labeled RNA was detected by autoradiography. Candidate inhibitors were dissolved in DMSO and added at the indicated concentrations during assembly of the reactions. Control reactions lacking the compounds contained DMSO as a vehicle control. The RNAseH autoradiograms were scanned and quantified with ImageJ.
(§2) Oligonucleotide-directed RNAseH cleavage assays (Gong et al., 2001) were performed as described (Tavis et al., 2013). Briefly, HBV RNAseH extracts were mixed with a 264 nt-long internally ^32P-labeled RNA plus an excess of a complementary DNA oligonucleotide or its inverse-complement as a negative control in a final concentration of 65 mM Tris pH 8.0, 190 mM NaCl, 5 mM MgCl2, 5 mM dTT, 0.05% NP40, and 6% glycerol. βTJ was dissolved in DMSO and added at the indicated concentrations; the final concentration of DMSO in all reactions was 1%. The reactions were incubated at 42° C. for 90 min. and terminated by addition of Laemmli protein electrophoresis buffer. The samples were resolved by SDS-PAGE, labeled RNA was detected by autoradiography, the autoradiograms were scanned, and the RNA cleavage products were quantified with ImageJ (National Institutes of Health). IC50 values were calculated by non-linear regression using GraphPad Prism (GraphPad Software, Inc.).

Another assay deals with T2, human RNAseH1 (Homo sapiens, UniProt O60930).
T2 construct: hexahistidine (N); made in house; host or cells: E. coli BL21 codon+
T2 sequence (O60930 1-286): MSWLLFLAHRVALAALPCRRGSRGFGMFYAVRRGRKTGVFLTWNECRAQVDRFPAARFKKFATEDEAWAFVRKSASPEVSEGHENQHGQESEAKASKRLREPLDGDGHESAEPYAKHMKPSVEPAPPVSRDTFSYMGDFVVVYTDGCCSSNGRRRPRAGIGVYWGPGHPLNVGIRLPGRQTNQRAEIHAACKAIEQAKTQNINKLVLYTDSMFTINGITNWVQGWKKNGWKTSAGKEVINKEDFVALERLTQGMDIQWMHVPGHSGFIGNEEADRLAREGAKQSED
Put plainly: Oligonucleotide-directed RNAseH assay, recombinant human RNAseH1. The class given is biochemical. As to conditions: class by concentration giving inhibition (10, 20, 60 μM). As for the experimental part:
as §1, with “ImageJ. The oligonucleotides were: D2526+([…]; SEQ ID NO:8), D2507-([…]; SEQ ID NO:9), D2453+([…]; SEQ ID NO:10), and D2543M-Sal ([…]; SEQ ID NO:11).” for “ImageJ.”
Therefore, the inventors cloned the human RNAseH1 with an N-terminal hexahistidine tag, expressed it in E. coli, and purified the protein by nickel affinity chromatography. […] This enzyme was active in the oligonucleotide-directed and fluorescent RNAseH assays (FIG. 10B and data not shown). To determine how inhibition of human RNAseH1 compared to inhibition of the HBV RNAseH, the inventor titrated the RNAaseH1 enzyme to yield similar levels of activity as the HBV enzyme, and then the inventor directly compared the ability of compounds #8-12 to inhibit human RNAseH1 and HRHPL at 10 μM. […] Therefore, it is possible to inhibit the HBV RNAseH without inhibiting human RNAseH1.
as §2

Another assay concerns HBV. Put plainly: HBV genomic replication assays (Table 2). Type of assay: cell-based, Hepatitis B virus. The conditions noted are these: class by active concentration. As for the experimental part:
Huh7 cells were maintained in Dulbecco's modified Eagle's medium with 10% fetal bovine serum at 37° C. in 5% CO2. Cells were seeded into 60 mm dishes and transfected at 70% confluency with 2.6 μg of plasmids using TransIT-LT1 (Mirus, Inc.). Test compounds were added the morning following transfection at 10 or 50 μM, and fresh medium containing the compounds was provided every 1-2 days. Four or five days post-transfection HBV cores were isolated by lysis of the cells in 10 mM Tris pH 7.5, 1 mM EDTA, 0.25% NP40, 50 mM NaCl, and 8% sucrose followed by sedimentation through a 30% sucrose cushion as described (Travis, et al., 1998). Viral DNAs were isolated from cytoplasmic core particle preparations by proteinase K digestion followed by phenol/chloroform extraction as described (Gong et al., 2001). Duplicate aliquots of the nucleic acids were treated with 2 U E. coli DNAse-free RNAseH (Invitrogen) at 37° C. for 30 min. or were mock treated. The nucleic acid samples were resolved by electrophoresis on 1.2% agarose gels and detected by Southern blotting with ^32P-labeled HBV DNA as a probe. […]

Each structure is given as a SMILES string.

T1 sequence (P03156 680-832, added parts left off, stated change not applied): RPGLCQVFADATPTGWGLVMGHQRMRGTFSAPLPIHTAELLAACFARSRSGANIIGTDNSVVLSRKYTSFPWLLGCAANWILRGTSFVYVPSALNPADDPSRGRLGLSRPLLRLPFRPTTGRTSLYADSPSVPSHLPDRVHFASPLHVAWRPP

In the case of `Cc1cc(C(F)(F)F)c(C#N)c(=O)[nH]1` [Compound 19], in assay [1], the “Activity vs. HBV Biochemical vs. gtD” value is “− (− no inhibition at 60 μM)”.

`N#Cc1cc2ccccc2oc1=N` [Compound 21]: in assay [1], the “Activity vs. HBV Biochemical vs. gtD” value was “− (− no inhibition at 60 μM)”.

Regarding `CCOC(=O)c1sc(NC(=O)CSc2nnc(-c3ccc(Cl)cc3)o2)c(C#N)c1C` [Compound 24], in assay [1], the “Activity vs. HBV Biochemical vs. gtD” value is “− (− no inhibition at 60 μM)”.

Regarding `N#Cc1c(NC(=O)CSc2nnc(Cc3ccccc3)o2)sc2c1CCCC2` [Compound 25], the “Activity vs. HBV Biochemical vs. gtD” value in assay [1] is reported as “− (− no inhibition at 60 μM)”.

As to `CCOC(=O)c1sc(NC(=O)CSc2nc(C)cc(-c3ccccc3)n2)c(C#N)c1C` [Compound 26], the “Activity vs. HBV Biochemical vs. gtD” value in assay [1] is “− (− no inhibition at 60 μM)”.

Consider `CCOC(=O)c1sc(NC(=O)CSc2nccc(C)n2)c(C#N)c1C` [Compound 27], for which, in assay [1], the “Activity vs. HBV Biochemical vs. gtD” value is “− (− no inhibition at 60 μM)”.

For the compound `CCOC(=O)c1sc(NC(=O)CSc2nnc[nH]2)c(C#N)c1C` [Compound 28], the “Activity vs. HBV Biochemical vs. gtD” value in assay [1] is “− (− no inhibition at 60 μM)”. The “Activity vs. human RNAseH1” value at human RNAseH1 is recorded as “+ (+ inhibition at 60 μM)”.

Consider `N#Cc1c(NC(=O)CSc2nnc(C3CC3)o2)sc2c1CCC2` [Compound 32], for which the “Activity vs. HBV Biochemical vs. gtD” value in assay [1] is given as “− (− no inhibition at 60 μM)”.

As to `Cc1ccc2oc(=O)c(C#N)c(C)c2c1` [Compound 33], the “Activity vs. HBV Biochemical vs. gtD” value in assay [1] is given as “− (− no inhibition at 60 μM)”.

As for `CCOC(=O)c1sc(NC(=O)CSc2ccc(Cl)cc2)c(C#N)c1C` [Compound 37], the “Activity vs. HBV Biochemical vs. gtD” value in assay [1] is recorded as “− (− no inhibition at 60 μM)”.

For `Cc1cc(C2CCCCC2)n(O)c(=O)c1` [Compound 41, Ciclopirox, reference compound], the “Activity vs. HBV Biochemical vs. gtD” value in assay [1] is listed as “− (− no inhibition at 60 μM)”. For the same compound, the “Activity vs. human RNAseH1” value at human RNAseH1 is “+ (+ inhibition at 60 μM)”.

As to `CCOC(=O)c1cc2ccccc2n(O)c1=O` [Compound 42], in assay [1], the “Activity vs. HBV Biochemical vs. gtD” value is “− (− no inhibition at 60 μM)”. In addition, the “Activity vs. human RNAseH1” value at human RNAseH1 is listed as “+ (+ inhibition at 60 μM)”.

For `Cc1cc(C)n(O)c(=O)c1C#N` [Compound 44], in assay [1], the “Activity vs. HBV Biochemical vs. gtD” value is reported as “− (− no inhibition at 60 μM)”. The “Activity vs. human RNAseH1” value at human RNAseH1 is “− (− no inhibition at 60 μM)”.

With `CC(C)=CCc1ccc(O)c(=O)cc1C(C)C` [Compound 49, Nootkatin], the “Activity vs. HBV Biochemical vs. gtD” value in assay [1] is given as “++ (++ inhibition at 20 μM)”. For the same compound, the “Activity vs. human RNAseH1” value at human RNAseH1 is on record as “− (− no inhibition at 60 μM)”.

As for `O=Nc1ccc(O)c(=O)cc1` [Compound 50, 5-nitrosotropolone], the “Activity vs. HBV Biochemical vs. gtD” value in assay [1] is on record as “++ (++ inhibition at 20 μM)”. Further, the “Activity vs. human RNAseH1” value on human RNAseH1 is recorded as “− (− no inhibition at 60 μM)”. In addition, the “Activity vs. HBV Genomic Replication” value in the assay on HBV is reported as “+ (+, activity detectable at >10 μM)”.

In the case of `O=C(Oc1cccccc1=O)c1ccc([N+](=O)[O-])cc1` [Compound 51, tropolone p-nitrobenzoate], in assay [1], the “Activity vs. HBV Biochemical vs. gtD” value is listed as “+ (+ inhibition at 60 μM)”.

In the case of `O=C(Nc1ccc(O)c(=O)cc1)c1ccccc1` [Compound 52], in assay [1], the “Activity vs. HBV Biochemical vs. gtD” value was “− (− no inhibition at 60 μM)”. Moreover, on human RNAseH1, the “Activity vs. human RNAseH1” value is recorded as “− (− no inhibition at 60 μM)”.

Turning to `O=c1ccccc(Br)c1O` [Compound 54, 3-bromotropolone], the “Activity vs. HBV Biochemical vs. gtD” value in assay [1] is recorded as “− (− no inhibition at 60 μM)”.

As to `CC(=O)NC(CCc1ccc(Cl)c(Cl)c1)c1cccc(O)c(=O)c1` (stereo not drawn) [Compound 55], in assay [1], the “Activity vs. HBV Biochemical vs. gtD” value is reported as “+ (+ inhibition at 60 μM)”. Also, the “Activity vs. human RNAseH1” value at human RNAseH1 is “+ (+ inhibition at 60 μM)”.

Regarding `O=c1cccccc1Cl` [Compound 57, 2-chlorotropone], the “Activity vs. HBV Biochemical vs. gtD” value in assay [1] is “− (− no inhibition at 60 μM)”.

Consider `Cc1cc(C)c(OC(=O)c2ccc(Cl)cc2)c(=O)c(C)c1` [Compound 59], for which, in assay [1], the “Activity vs. HBV Biochemical vs. gtD” value was “− (− no inhibition at 60 μM)”. In addition, on human RNAseH1, the “Activity vs. human RNAseH1” value is recorded as “+ (+ inhibition at 60 μM)”.

Consider `Cc1ccc(S(=O)(=O)Oc2cccccc2=O)cc1` [Compound 61], for which the “Activity vs. HBV Biochemical vs. gtD” value in assay [1] is recorded as “− (− no inhibition at 60 μM)”. Also, the “Activity vs. human RNAseH1” value on human RNAseH1 was “++ (++ inhibition at 20 μM)”.

Consider `O=C(Oc1cccccc1=O)c1ccccc1` [Compound 62], for which the “Activity vs. HBV Biochemical vs. gtD” value in assay [1] is listed as “+ (+ inhibition at 60 μM)”.

Consider `O=C(Oc1cccccc1=O)c1ccc(Cl)cc1` [Compound 63], for which the “Activity vs. HBV Biochemical vs. gtD” value in assay [1] is listed as “− (− no inhibition at 60 μM)”.

Regarding `CCn1cc(C(=O)O)c(=O)c2cc3c(cc21)OCO3` [Compound 65], the “Activity vs. HBV Biochemical vs. gtD” value in assay [1] is recorded as “− (− no inhibition at 60 μM)”.

For the compound `O=C(O)c1cn(C2CC2)c2cc(Cl)c(F)cc2c1=O` [Compound 66], the “Activity vs. HBV Biochemical vs. gtD” value in assay [1] is “− (− no inhibition at 60 μM)”.

As for `CC1COc2c(N3CCN(C)CC3)c(F)cc3c(=O)c(C(=O)O)cn1c23` (stereo not drawn) [Compound 68], in assay [1], the “Activity vs. HBV Biochemical vs. gtD” value was “− (− no inhibition at 60 μM)”.

For the compound `CCn1cc(C(=O)O)c(=O)c2ccc(C)nc21` [Compound 70], the “Activity vs. HBV Biochemical vs. gtD” value in assay [1] is given as “− (− no inhibition at 60 μM)”.

Regarding `CCN1C[C@H](C)n2c(c(O)c3c(=O)n(Cc4ccc(F)c(Cl)c4)nc(C(=O)NC)c32)C1=O` [Compound 74, reference compound], the “Activity vs. HBV Biochemical vs. gtD” value in assay [1] is reported as “− (− no inhibition at 60 μM)”.

As for `Cn1c(C(C)(C)N)nc(C(=O)NCc2ccc(F)cc2)c(O)c1=O` [Compound 77, reference compound], in assay [1], the “Activity vs. HBV Biochemical vs. gtD” value was “− (− no inhibition at 60 μM)”.

`CC(C)S[C@@H]1O[C@H](CO)[C@H](O)[C@H](O)[C@H]1O` [IPTG, reference compound]: in assay [1] (irrelevant compounds at 10 μM, pooled), the “RNAseH activity of HRHPL relative to the DMSO vehicle control” value was determined as 52±9%.

For the origin of these results see patent publication US10329542B2, “HBV RNAse H purification and enzyme inhibitors” (Saint Louis University, priority 2012, dated 2019).
